Data: PubChem BioAssay (NCI)
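Cells were grown in 96-well plates and exposed to each compound for 48 hours at five concentrations; endpoints were interpolated linearly between bracketing concentrations, or set to the highest concentration if not reached. The concentration for 50% growth inhibition is given as GI50. The concentration for full growth arrest is given as TGI.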

Columns and labels:
Assay in all cases: inhibition of tumour cell growth, NCI panel, 48 h
[1] = test system: SR leukemia
[2] = test system: NCI-H226 lung
[3] = test system: CAKI-1 renal
[4] = test system: NCI-H460 lung
[5] = test system: CCRF-CEM leukemia
[6] = test system: SK-MEL-5 melanoma
[7] = test system: SF-268 CNS
[8] = test system: LOX IMVI melanoma
[9] = test system: TK-10 renal
[10] = test system: HOP-92 NSCLC

Compound	TGI [1] [µM]	TGI [2] [µM]	TGI [3] [µM]	TGI [4] [µM]	TGI [5] [µM]	TGI [6] [µM]	TGI [7] [µM]	TGI [8] [µM]	TGI [9] [µM]	TGI [10] [µM]	GI50 [8] [µM]	GI50 [9] [µM]	GI50 [2] [µM]	GI50 [3] [µM]	GI50 [10] [µM]	GI50 [4] [µM]	GI50 [5] [µM]	GI50 [6] [µM]	GI50 [7] [µM]	GI50 [1] [nM]
COC1OC(C)C(OCc2ccccc2)C(OS(=O)(=O)c2ccc(C)cc2)C1OS(=O)(=O)c1ccc(C)cc1 (centres undefined)	> 100	> 100	> 100	> 100	> 100	> 100	> 100	–	–	–	–	–	–	–	–	–	–	–	–	–
CCN(CC)CC(=O)N1CCc2c([nH]c3ccccc23)C1c1cccnc1 (centres undefined)	–	–	> 100	> 100	> 100	> 100	> 100	> 100	> 100	> 100	–	–	–	–	–	–	–	–	–	–
CCOC1Oc2ccccc2-c2oc(=O)c(Sc3ccc(C)cc3)cc21 (centres undefined)	–	> 100	> 100	> 100	50.2	95.3	75.8	> 100	> 100	48.4	24	30.8	36.8	35.4	10.8	20	14.5	26	27.9	–
O=C1c2cccnc2-c2nc(-c3ccncc3)cc3c2c1nc1ccccc13	> 100	22.8	34.8	19.5	39.6	36.5	34.5	43.6	40.2	–	16.1	19.5	10.9	16.4	–	6.29	8.03	14.1	15.1	2940
CCOC(=O)C(=O)Nc1ccccc1C(F)(F)F	> 100	> 100	> 100	> 100	–	–	> 100	> 100	> 100	> 100	–	–	–	–	–	–	–	–	–	–
C[C@H]1[C@H](C)CC[C@]2(C(=O)NCCNCCN)CC[C@]3(C)C(=CC[C@@H]4[C@@]5(C)CCC(=O)C(C)(C)[C@@H]5CC[C@]43C)[C@H]12	–	45.5	4.01	3.28	–	3.23	–	3.13	3.75	4.82	1.71	1.84	14.8	1.75	1.73	1.77	–	1.8	–	–
COc1ccccc1-c1cc(=O)c2ccc(C)nc2[nH]1	–	> 100	> 100	> 100	> 100	> 100	> 100	> 100	> 100	> 100	–	–	–	–	–	98.7	–	51.6	–	–
CC1(C)OC2COC3(CNO)OC(C)(C)OC3C2O1 (centres undefined)	–	> 100	> 100	> 100	> 100	> 100	> 100	> 100	> 100	> 100	–	–	–	–	–	–	–	–	–	–
O=C(O)CCC(NC(=S)S)C(=O)O.[Na+].[Zn+2] (centres undefined)	–	> 50	> 50	> 50	> 50	> 50	> 50	> 50	> 50	> 50	> 50	> 50	> 50	> 50	> 50	> 50	> 50	> 50	> 50	–
CCCCCCCCCCCCCC(=O)OCC1OC(=O)CC1O (centres undefined)	–	–	> 100	> 100	> 100	> 100	> 100	> 100	> 100	40.2	–	–	–	–	–	–	–	–	–	–
c1ccc(Cn2cnc3ccc(-c4nc(-c5ccc6c(c5)ncn6C5CCCCC5)cn5ccnc45)cc32)cc1	> 100	–	> 100	5.66	> 100	–	> 100	–	> 100	2.62	–	3.52	–	2.45	1.25	2.3	2.18	–	2.48	1680
CC1CCCc2c1nn(C(=O)/C=C(\N)c1ccccc1)c2N (centres undefined)	–	> 100	15.4	> 100	> 100	45.7	> 100	> 100	> 100	95.7	6.29	28.9	16.5	4.11	10.3	4.23	6.8	4.35	9.61	–
COc1ccc(-c2nnc(N3CCN(C(=O)CN4CCN(c5ccc(OC)cc5)CC4)CC3)nc2-c2ccc(OC)cc2)cc1	4.04	34.5	51.1	> 62.3	6.06	6.83	14.2	–	62.5	35.2	–	19	5.53	15.5	16.1	15.4	3.02	2.4	3.62	2100
CC1=C(C(=O)Nc2ccccc2C)C(/C=C/c2ccccc2)C(C(=O)Nc2ccccc2C)=C(C)N1	–	> 100	> 100	> 100	> 100	> 100	> 100	> 100	> 100	> 100	–	–	–	–	–	–	–	–	–	–
CC(=O)[O-].CC(=O)[O-].CC(=O)[O-].CC(=O)[O-].[Mo+2].[Mo+2]	–	> 100	> 100	> 100	> 100	> 100	> 100	> 100	> 100	> 100	> 100	> 100	> 100	> 100	39.9	> 100	> 100	> 100	> 100	–
NC(N)=NS(=O)(=O)c1ccc(NC(=O)c2cccc3c(Nc4ccc(S(N)(=O)=O)cc4)c4ccccc4nc23)cc1	–	–	> 100	> 100	> 100	> 100	> 100	> 100	> 100	> 100	–	–	–	–	–	–	–	–	–	–
